Here are results for three molecules from patent publication US5821363A, “Antineoplastic use and pharmaceutical compositions containing them” (priority 1996, dated 1998).

One assay has as its system tubulin. The settings on record: 20° C.; compared with taxol.
For assay [1], the system named is L1210 mouse leukemia carcinoma cells. The assay can be described thus: cytotoxicity / inhibition of cell proliferation in L1210 leukemia cells. Type of assay: cell-based.
Assay [2] concerns A2780 human ovarian carcinoma. In words: cytotoxicity in A2780 human ovarian carcinoma cells. Type of assay: cell-based.
The test system of the next assay is KB-3-1. In words: killing of drug sensitive (non-MDR) KB-3-1 cells. Format: cell-based. Particulars: Homo sapiens.
For the next assay, the system named is KB-V1. The assay can be described thus: killing of multidrug resistant KB-V1 cells. Format: cell-based. Particulars: for IC50: Homo sapiens.

≈ marks a conversion by molar mass, not a printed value. Like-named read-outs stand apart in the source and are kept apart here.

With 7-deoxy-7β,8β-methano-taxol, in the assay with tubulin, the “induction of tubulin polymerization in vitro” value is “able to induce tubulin polymerization in vitro at 20 °C in a manner very similar to taxol”.

For `CC(=O)O[C@@]12CO[C@@H]1C[C@H](O)[C@@]1(C)C(=O)[C@H](O)C3=C(C)[C@@H](OC(=O)[C@H](O)[C@@H](NC(=O)OC(C)(C)C)c4ccccc4)C[C@@](O)([C@@H](OC(=O)c4ccccc4)[C@H]21)C3(C)C` [taxotere, reference compound], the IC50 is 0.004 µg/mL (≈ 4.95 nM) in assay [1] (L1210 leukemia, Table I, 50% inhibition of cell proliferation vs untreated control, read-out: L1210 (IC50 μg/ml)); 0.001 to 0.0016 µg/mL (≈ 1.24 to 1.98 nM) in assay [2] (A2780 human ovarian carcinoma, Table II, read-out: A2780 (IC50 μg/ml)); 0.25 nM in the assay on KB-3-1 (KB-3-1 drug sensitive cells, Table III, read-out: KB-3-1 (IC50; nM)); 1700 nM in the assay on KB-V1 (KB-V1 multidrug resistant cells, Table III, read-out: KB-V1 (IC50; nM)). The “Ratio: KBV-1/KB-3-1” value with KB-V1 (ratio of IC50 KB-V1 to IC50 KB-3-1) is on record as 7,570. Moreover, in the assay on KB-V1 (taxol and taxotere, average), the “average ratio (IC50 KB-V1/IC50 KB-3-1)” value was 7,570.

`CC(=O)O[C@H]1C(=O)[C@@]2(C)[C@H]([C@H](OC(=O)c3ccccc3)[C@]3(O)C[C@H](OC(=O)[C@H](O)[C@@H](NC(=O)c4ccccc4)c4ccccc4)C(C)=C1C3(C)C)[C@]1(OC(C)=O)CO[C@@H]1C[C@@H]2O` [taxol, reference compound]: the IC90 in assay [1] (L1210, read-out: IC90 (90% growth inhibitory concentration)) came out at 18 ng/mL (≈ 21.1 nM). Further, the IC50 was 0.017 µg/mL (≈ 19.9 nM) in assay [1] (L1210, read-out: L1210 (IC50 μg/ml)); 0.002 to 0.003 µg/mL (≈ 2.34 to 3.51 nM) in assay [2] (Homo sapiens, A2780, read-out: A2780 (IC50 μg/ml)); 1.3 nM in the assay with KB-3-1 (KB 3-1, read-out: KB-3-1 (IC50; nM)); 15000 nM in the assay on KB-V1 (KB-V1, read-out: KB-V1 (IC50; nM)). For the same molecule, the “Ratio: KBV-1/KB-3-1” value in the assay with KB-V1 (human, kb-v1 vs kb-3-1 cells) is recorded as 11,538. Also, the “average ratio (IC50 KB-V1/IC50 KB-3-1)” value in the assay with KB-V1 (human, kb-v1 vs kb-3-1 cells) is on record as 7,570.
